Assay results from US6124323A, “4-substituted piperidine analogs and their use as subtype selective NMDA receptor antagonists” (Warner-Lambert Company, priority 1998, dated 2000).
pIC50: −log10 of the molar value. Counter-ions that a name gives are not always drawn.

How the values were obtained:
[1] = biological target: T1, NMDA receptor subunits 1A/2B (Rattus norvegicus, UniProt P35439+Q00960); test: Electrophysiological assay at NMDA receptor subunits expressed in Xenopus oocytes, 1A/2B; format: cell-based; conditions: Xenopus oocytes; glutamate 100 μm and glycine 1-100 μm; read-out: Subunits IC50, 1A/2B
T1 construct: expressed in transfected cells; host or cells: Xenopus laevis oocytes (cRNA injection; clones from Dr. P. H. Seeburg)
In short: (§1)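 Two-electrode voltage clamp of Xenopus oocytes injected with rat NR1A plus NR2A, 2B or 2C cRNA (1:1), recorded 3–21 days post-injection in Ringer's, pH 7.4. Currents evoked by glutamate (100 μm) with glycine (1–100 μm); antagonist applied by bath perfusion at rising concentrations, IC50 from logistic fit or linear regression for incomplete curves.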

[2] = biological target: T2, NMDA receptor subunits 1A/2A (Rattus norvegicus, UniProt P35439+Q00959); test: Electrophysiological assay at NMDA receptor subunits expressed in Xenopus oocytes, 1A/2A; format: cell-based; conditions: glutamate 100 μm and glycine 1-100 μm
T2 construct: expressed in transfected cells; host or cells: Xenopus laevis oocytes (cRNA injection; clones from Dr. P. H. Seeburg)
Protocol: Many of the properties of native NMDA receptors are seen in recombinant homomeric NR1 receptors. These properties are altered by the NR2 subunits. Recombinant NMDA receptors expressed in Xenopus oocytes have been studied by voltage-clamp recording, as has developmental and regional expression of the mRNAs encoding NMDA receptor subunits. Electrophysiological assays were utilized to characterize the actions of compounds at NMDA receptors expressed in Xenopus oocytes. The compounds were assayed at four subunit combinations of cloned rat NMDA receptors, corresponding to three putative NMDA receptor subtypes [Moriyoshi, et al. Nature 1991, 354, 31-37; Monyer et al, Science 1992, 256, 1217-1221; Kutsuwada et al, Nature 1992, 358, 36-41; Sugihara et al, Biochem. Biophys Res. Commun. 1992, 185, 826-832].
Electrophysiological Assays at NMDA Receptor Subunits
Preparation of RNA. cDNA clones encoding the NR1A, NR2A, NR2B, NR2C and NR2D rat NMDA receptor subtypes were provided by Dr. P. H. Seeburg (see, Moriyoshi et al., Nature (Lond.) 354:31-37 (1991); Kutsuwada et al., Nature (Lond.) 358:36-41 (1992) Monyer et al., Science (Washington, D.C.) 256:1217-1221 (1992); Ikeda et al., FEBS Lett. 313:34-38 (1992); Ishii et al., J. Biol. Chem. 268:2836-2843 (1993) for details of these clones or their mouse homologs). The clones were transformed into appropriate host bacteria and plasmid preparations were made with conventional DNA purification techniques. A sample of each clone was linearized by restriction enzyme digestion and cRNA was synthesized with T3 RNA polymerase. The cRNA was diluted to 400 ng/μl and stored in 1 μl aliquots at -80° C. until injection.
The Xenopus oocyte expression system. Mature female Xenopus laevis were anaesthetized (20-40 min) using 0.15% 3-aminobenzoic acid ethyl ester (MS-222) and 2-4 ovarian lobes were surgically removed. Oocytes at developmental stages IV-VI (Dumont, J. N., J. Morphol. 136:153-180 (1972)), were dissected from the ovary still surrounded by enveloping ovarian tissues. Follicle-enclosed oocytes were micro-injected with 1:1 mixtures of cRNA:NR1A+NR2A, 2B, 2C or 2D; injecting ~2,5, or 20 ng of RNA encoding each receptor subunit. NR1A encoding cRNA was injected alone at ~20 ng. Oocytes were stored in Barth's medium containing (in mM):NaCl, 88; KCl, 1; CaCl2, 0.41; Ca(NO3)2, 0.33; MgSO4, 0.82 NaHCO3, 2.4; HEPES 5, pH 7.4, with 0.1 mg/ml gentamicin sulphate. While oocytes were still surrounded by enveloping ovarian tissues the Barth's medium was supplemented with 0.1% bovine serum. Oocytes were defolliculated 1-2 days following injections by treatment with collagenase (0.5 mg/ml Sigma Type I for 0.5-1 hr) (Miledi and Woodward, J. Physiol. (Lond.) 416:601-621 (1989)) and subsequently stored in serum-free medium.
Electrical recordings were made using a conventional two-electrode voltage clamp (Dagan TEV-200) over periods ranging between 3-21 days following injection. (Woodward et al., Mol. Pharmacol. 41: 89-103 (1992)). Oocytes were placed in a 0.1 ml recording chamber continuously perfused (5-15 ml min^-1 ) with frog Ringer's solution containing (in mM):NaCl, 115; KCl, 2; CaCl2, 1.8; HEPES, 5; pH 7.4. Drugs were applied by bath perfusion. Using oocytes expressing different subunit combinations of NMDA receptor, NMDA currents were activated by co-application of glutamate (100 μm) and glycine (1-100 μm). Inhibitory potency of the novel antagonists was assessed on responses elicited by fixed concentrations of glutamate and glycine, by measuring reductions in current induced by progressively increasing concentrations of antagonist. Concentration-inhibition curves were fit with equation 1.
I/Icontrol =1/(1+([antagonist]/10^-pIC50)^n) Eq. 1
in which Icontrol is the current evoked by agonists alone, pIC50 =-log IC50, IC50 is the concentration of antagonist that produces half maximal inhibition, and n is the slope factor. (De Lean et al., Am. J. Physiol. 235:E97-102 (1978)). […]

[3] = system: Maximal Electroshock-induced Seizures; test: Maximal electroshock-induced seizures (MES); format: in vivo; conditions: Mus musculus; mice; 50 mA, 60 pulses/sec, 1 sec
Description: Seizures were induced by application of current (50 mA, 60 pulses/sec, 0.8 sec pulse width, 1 sec duration, d.c.) through saline-coated corneal electrodes using a Ugo Basile ECT device (Model 7801). […] A tonic seizure was defined as a hindlimb extension in excess of 90 degrees from the plane of the body.

[4] = biological target: T3, NMDA receptor subunits 1A/2C (Rattus norvegicus, UniProt P35439+Q00961); test: Electrophysiological assay at NMDA receptor subunits expressed in Xenopus oocytes, 1A/2C; format: cell-based; conditions: Xenopus oocytes; glutamate 100 μm and glycine 1-100 μm; read-out: Subunits IC50, 1A/2C
T3 construct: expressed in transfected cells; host or cells: Xenopus laevis oocytes (cRNA injection; clones from Dr. P. H. Seeburg)
In short: as §1

T1 sequence (Q00960 27-1482, other chains not shown): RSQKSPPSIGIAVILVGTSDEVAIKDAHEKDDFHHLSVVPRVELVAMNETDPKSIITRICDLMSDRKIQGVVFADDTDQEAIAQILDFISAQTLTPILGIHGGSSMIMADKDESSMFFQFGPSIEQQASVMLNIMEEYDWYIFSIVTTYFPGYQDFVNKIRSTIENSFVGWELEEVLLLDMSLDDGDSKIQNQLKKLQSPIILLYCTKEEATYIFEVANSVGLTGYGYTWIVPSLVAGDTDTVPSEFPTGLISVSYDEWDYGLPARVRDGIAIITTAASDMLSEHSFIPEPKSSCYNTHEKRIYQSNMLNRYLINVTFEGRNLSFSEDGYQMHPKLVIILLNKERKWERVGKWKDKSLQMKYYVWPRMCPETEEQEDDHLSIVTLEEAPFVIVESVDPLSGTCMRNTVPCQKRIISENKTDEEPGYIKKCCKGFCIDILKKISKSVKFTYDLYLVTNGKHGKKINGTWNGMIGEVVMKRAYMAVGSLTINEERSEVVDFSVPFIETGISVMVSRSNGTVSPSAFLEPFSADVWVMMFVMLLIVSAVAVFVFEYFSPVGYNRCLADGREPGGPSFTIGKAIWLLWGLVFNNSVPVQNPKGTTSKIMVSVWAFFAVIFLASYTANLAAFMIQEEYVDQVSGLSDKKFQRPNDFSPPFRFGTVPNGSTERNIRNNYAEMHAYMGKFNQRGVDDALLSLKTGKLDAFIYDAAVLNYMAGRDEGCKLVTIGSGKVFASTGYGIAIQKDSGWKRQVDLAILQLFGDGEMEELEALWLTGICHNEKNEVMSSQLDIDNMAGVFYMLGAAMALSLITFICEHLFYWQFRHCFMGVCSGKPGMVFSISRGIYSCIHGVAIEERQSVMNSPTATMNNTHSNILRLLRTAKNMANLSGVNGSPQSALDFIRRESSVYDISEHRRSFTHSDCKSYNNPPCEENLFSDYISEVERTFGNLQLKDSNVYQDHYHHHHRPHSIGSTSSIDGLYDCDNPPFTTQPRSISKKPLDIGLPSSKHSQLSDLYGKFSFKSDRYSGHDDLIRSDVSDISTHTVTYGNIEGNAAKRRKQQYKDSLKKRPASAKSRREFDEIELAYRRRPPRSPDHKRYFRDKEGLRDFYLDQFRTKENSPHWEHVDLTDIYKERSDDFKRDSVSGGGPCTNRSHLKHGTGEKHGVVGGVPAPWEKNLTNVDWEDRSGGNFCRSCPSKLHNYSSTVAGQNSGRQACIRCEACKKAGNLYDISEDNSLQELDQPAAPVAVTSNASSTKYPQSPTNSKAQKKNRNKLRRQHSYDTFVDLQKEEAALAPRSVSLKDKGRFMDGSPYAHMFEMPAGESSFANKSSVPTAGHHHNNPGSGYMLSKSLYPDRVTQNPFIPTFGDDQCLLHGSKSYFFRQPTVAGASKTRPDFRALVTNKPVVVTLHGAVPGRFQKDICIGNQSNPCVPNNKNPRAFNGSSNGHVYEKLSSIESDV
T2 sequence (Q00959 20-1464 limits assumed, other chains not shown): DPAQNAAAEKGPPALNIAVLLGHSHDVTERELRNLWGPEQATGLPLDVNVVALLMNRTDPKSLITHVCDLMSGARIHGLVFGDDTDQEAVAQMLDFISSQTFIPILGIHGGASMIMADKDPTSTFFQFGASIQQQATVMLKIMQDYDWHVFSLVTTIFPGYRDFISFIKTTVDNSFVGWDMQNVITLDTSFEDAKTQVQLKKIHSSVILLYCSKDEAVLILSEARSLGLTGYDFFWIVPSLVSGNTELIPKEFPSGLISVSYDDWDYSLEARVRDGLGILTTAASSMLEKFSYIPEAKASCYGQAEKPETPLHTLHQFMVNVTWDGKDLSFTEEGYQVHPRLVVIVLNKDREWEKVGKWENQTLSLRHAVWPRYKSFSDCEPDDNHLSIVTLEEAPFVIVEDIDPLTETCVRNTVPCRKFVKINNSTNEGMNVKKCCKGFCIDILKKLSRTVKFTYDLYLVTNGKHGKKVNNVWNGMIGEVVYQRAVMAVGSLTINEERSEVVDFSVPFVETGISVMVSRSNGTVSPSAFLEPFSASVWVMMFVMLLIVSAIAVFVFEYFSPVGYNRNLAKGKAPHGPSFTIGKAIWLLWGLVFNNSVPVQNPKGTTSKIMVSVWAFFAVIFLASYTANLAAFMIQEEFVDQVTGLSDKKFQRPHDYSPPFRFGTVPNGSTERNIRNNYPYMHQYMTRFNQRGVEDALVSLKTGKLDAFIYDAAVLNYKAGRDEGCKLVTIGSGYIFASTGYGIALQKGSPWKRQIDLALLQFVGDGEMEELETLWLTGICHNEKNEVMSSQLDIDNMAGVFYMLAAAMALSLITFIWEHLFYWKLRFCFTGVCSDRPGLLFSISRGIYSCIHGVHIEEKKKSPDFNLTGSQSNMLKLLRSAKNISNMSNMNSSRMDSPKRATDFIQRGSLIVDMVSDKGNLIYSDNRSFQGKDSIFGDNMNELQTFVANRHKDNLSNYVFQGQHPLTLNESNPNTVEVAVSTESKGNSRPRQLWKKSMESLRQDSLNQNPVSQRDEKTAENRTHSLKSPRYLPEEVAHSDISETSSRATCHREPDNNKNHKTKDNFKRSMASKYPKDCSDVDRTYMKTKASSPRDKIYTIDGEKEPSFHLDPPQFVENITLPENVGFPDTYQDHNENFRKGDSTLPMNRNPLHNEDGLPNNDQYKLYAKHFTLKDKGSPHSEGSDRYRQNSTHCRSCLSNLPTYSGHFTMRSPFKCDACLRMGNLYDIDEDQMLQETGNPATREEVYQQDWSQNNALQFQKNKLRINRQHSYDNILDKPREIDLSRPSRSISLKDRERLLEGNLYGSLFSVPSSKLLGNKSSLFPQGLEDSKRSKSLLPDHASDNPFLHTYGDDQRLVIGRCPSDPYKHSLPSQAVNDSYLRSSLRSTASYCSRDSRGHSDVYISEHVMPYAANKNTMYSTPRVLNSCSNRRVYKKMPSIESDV
T3 sequence (Q00961 20-1237, other chains not shown): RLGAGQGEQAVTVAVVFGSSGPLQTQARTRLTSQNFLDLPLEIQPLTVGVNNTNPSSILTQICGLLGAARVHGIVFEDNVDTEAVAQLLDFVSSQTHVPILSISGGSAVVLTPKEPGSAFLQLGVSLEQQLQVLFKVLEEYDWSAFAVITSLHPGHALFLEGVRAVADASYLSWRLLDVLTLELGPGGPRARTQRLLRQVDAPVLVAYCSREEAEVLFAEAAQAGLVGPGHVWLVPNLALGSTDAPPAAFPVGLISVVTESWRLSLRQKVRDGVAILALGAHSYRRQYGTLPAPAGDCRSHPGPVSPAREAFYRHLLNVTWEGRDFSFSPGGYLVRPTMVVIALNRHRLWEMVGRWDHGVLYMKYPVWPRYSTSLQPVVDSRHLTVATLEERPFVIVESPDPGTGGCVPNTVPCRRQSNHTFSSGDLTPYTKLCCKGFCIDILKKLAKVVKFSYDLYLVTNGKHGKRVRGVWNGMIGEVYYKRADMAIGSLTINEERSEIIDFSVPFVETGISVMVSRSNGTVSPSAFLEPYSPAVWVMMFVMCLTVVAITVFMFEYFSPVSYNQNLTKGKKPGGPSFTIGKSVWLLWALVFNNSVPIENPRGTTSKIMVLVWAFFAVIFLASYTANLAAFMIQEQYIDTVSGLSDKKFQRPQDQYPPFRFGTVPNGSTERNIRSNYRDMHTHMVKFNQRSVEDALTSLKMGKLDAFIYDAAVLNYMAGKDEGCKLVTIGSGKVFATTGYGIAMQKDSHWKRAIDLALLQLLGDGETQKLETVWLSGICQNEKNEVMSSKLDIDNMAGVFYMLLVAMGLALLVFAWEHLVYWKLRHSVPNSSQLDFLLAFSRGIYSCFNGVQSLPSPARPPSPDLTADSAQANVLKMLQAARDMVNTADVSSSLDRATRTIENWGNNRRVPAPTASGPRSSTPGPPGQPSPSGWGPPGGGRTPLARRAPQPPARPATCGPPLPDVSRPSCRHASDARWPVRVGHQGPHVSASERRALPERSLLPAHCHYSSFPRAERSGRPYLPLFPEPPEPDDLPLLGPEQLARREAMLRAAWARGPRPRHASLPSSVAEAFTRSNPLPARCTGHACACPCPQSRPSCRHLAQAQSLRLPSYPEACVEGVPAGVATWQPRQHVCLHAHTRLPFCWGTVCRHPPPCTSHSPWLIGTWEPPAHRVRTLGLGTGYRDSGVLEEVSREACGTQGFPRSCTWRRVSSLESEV

Row | SMILES | pIC50 [1] | pIC50 [2] | ED50 [3] [mg/kg] | pIC50 [4]
1 | OC(COc1cccc2ccccc12)CN1CCC(Cc2ccccc2)CC1 (stereo not drawn) [Ex. 3, 4-Benzyl-1-[2-hydroxy-3-(1-naphthyloxy)propyl]piperidine] | 5.55 | 4.46 | 2 | < 4.00
2 | Br.Br.Nc1ccc(OCCN2CCC(Cc3ccccc3)CC2)cc1 [Ex. 13, 1-(2-(4-Aminophenoxy)ethyl)-4-benzylpiperidine dihydrobromide] | 5.89 | 4.05 | 6 | < 4.00
3 | OCCc1cccc(OCCN2CCC(Cc3ccccc3)CC2)c1 [Ex. 18, 4-Benzyl-1-(2-(3-(2-hydroxyethyl)phenoxy)ethyl)piperidine] | 6.40 | 4.22 | 6 | < 4.00
4 | Fc1cccc(OCCCN2CCC(Cc3ccccc3)CC2)c1 [Ex. 22, 4-Benzyl-1-(3-(3-fluorophenoxy)propyl)piperidine hydrobromide] | 6.05 | 4.05 | 4 | < 4.00
5 | Clc1ccc(CC2CCN(CCOc3ccccc3)CC2)cc1 [Ex. 24, 4-(4-Chlorobenzyl)-1-(2-phenoxyethyl)piperidine hydrochloride] | 6.00 | 4.15 | 2 | 4.00
6 | Br.Br.Nc1ccc(OCCN2CCC(Cc3ccc(Cl)cc3)CC2)cc1 [Ex. 28, 1-(2-(4-Aminophenoxy)ethyl)-4-(4-chlorobenzyl)piperidine dihydrobromide] | 6.40 | 4.42 | 5 | < 4.00
7 | Clc1ccc(CC2CCN(CCCOc3ccccc3)CC2)cc1 [Ex. 30, 4-(4-Chlorobenzyl)-1-(3-phenoxypropyl)piperidine hydrobromide] | 6.10 | 4.30 | 6 | 4.00
8 | Fc1cccc(OCCCN2CCC(Cc3ccc(Cl)cc3)CC2)c1 [Ex. 31, 4-(4-Chlorobenzyl)-1-(3-(3-fluorophenoxy)propyl)piperidine hydrobromide] | 6.05 | 4.47 | 7.5 | 4.22
9 | Fc1ccc(OCCN2CCC(Nc3ccc(Cl)cc3)CC2)cc1 [Ex. 38, 4-(4-Chloroanilino)-1-(2-(4-fluorophenoxy)ethyl)piperidine dihydrochloride] | 4.35 | 4.12 | 10 | < 4.00
10 | Clc1ccc(NC2CCN(CCCOc3ccccc3)CC2)cc1 [Ex. 40, 4-(N-(4-Chloroanilino)-1-(3-phenoxypropyl)piperidine hydrobromide] | 5.52 | 4.10 | 2.5 | 4.00
11 | OC1(Cc2ccccc2)CCN(CCOc2ccccc2)CC1 [Ex. 47, 4-Benzyl-4-hydroxy-1-(2-phenoxyethyl)piperidine hydrochloride] | 5.52 | 4.07 | 3.2 | < 4.00
12 | O=c1[nH]c2cccc(OCCN3CCC(Cc4ccccc4)CC3)c2[nH]1 [Ex. 55, 4-Benzyl-1-[2-(2-oxobenzimidazol-4-oxy)ethyl]piperidine] | 6.96 | 4.30 | 6 | < 4.00
